Consider 59 molecules from US12466813B2, “PRC1 inhibitors and methods of treatment therewith” (The Regents of the University of Michigan, priority 2018, dated 2025).

For the assay, the target named is T1, RING1B-BMI1 (Homo sapiens, UniProt Q99496).
T1 sequence (Q99496 1-336): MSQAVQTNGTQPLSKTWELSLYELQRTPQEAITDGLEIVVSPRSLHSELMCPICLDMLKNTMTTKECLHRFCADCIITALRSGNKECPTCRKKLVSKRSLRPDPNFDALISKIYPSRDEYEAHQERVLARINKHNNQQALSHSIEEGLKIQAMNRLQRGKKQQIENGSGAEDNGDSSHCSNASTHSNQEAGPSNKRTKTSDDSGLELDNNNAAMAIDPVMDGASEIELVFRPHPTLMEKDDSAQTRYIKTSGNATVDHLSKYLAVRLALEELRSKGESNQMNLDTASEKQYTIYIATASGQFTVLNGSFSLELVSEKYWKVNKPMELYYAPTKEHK
T1 sequence (P35226 1-326 partner): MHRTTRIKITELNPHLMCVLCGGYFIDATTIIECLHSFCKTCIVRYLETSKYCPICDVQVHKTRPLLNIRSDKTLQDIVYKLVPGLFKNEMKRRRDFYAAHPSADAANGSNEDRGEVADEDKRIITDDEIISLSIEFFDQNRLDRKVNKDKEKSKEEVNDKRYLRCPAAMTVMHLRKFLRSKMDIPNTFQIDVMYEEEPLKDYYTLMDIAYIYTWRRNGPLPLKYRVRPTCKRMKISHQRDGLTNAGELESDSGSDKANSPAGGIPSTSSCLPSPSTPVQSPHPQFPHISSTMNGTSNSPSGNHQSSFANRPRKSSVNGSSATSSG
In words: KD classes of Table A (direct binding to Ring1B-Bmi1). The conditions noted are these: class given in Table A.

The Kd is a measure of binding affinity in units of concentration. The low end stands for tighter binding, the high end for weaker binding. As to `CC(C)c1c(-c2cc(F)cc3[nH]ccc23)[nH]c(C(=O)O)c1-c1cccc2c1ccn2CCO` [compound 44], the Kd was less than 20 µM. Molecule `CC(C)c1c(-c2cc(C(F)(F)F)cc3[nH]ccc23)[nH]c(C(=O)O)c1-c1c(Cl)ccc2[nH]ccc12` [compound 10] came in with a Kd of less than 20 µM. Molecule `CC(C)c1c(-c2cc(F)cc3[nH]ccc23)[nH]c(C(=O)O)c1-c1ccc(Oc2nccs2)cc1` [compound 62] returned a Kd of less than 20 µM.

Take `O=C(O)c1ccc(-c2ccccc2OCc2ccccc2)[nH]1` [compound 138]: the Kd was more than 100 µM. As to `Cc1cc(-c2[nH]c(C(=O)O)c(-c3c(Cl)ccc4[nH]ccc34)c2C(C)C)c2cc[nH]c2c1` [compound 8], the Kd is less than 20 µM. The molecule `CC(C)c1c(-c2ccc3cc[nH]c3c2)[nH]c(C(=O)O)c1-c1c(Cl)ccc2[nH]ccc12` [compound 182, 3-(5-chloro-1H-indol-4-yl)-5-(1H-indol-6-yl)-4-isopropyl-1H-pyrrole-2-carboxylic acid] registered a Kd of less than 20 µM. Turning to `CC(C)CCOc1cccc(-c2ccc(C(=O)O)[nH]2)c1` [compound 132], the Kd is more than 100 µM. Regarding `CC(C)CCn1ccc2c(-c3ccc(C(=O)O)[nH]3)cccc21` [compound 124], the Kd is more than 100 µM. `CCOC(=O)c1[nH]c(-c2cccc3[nH]ncc23)c(CC)c1-c1ccc(OC)cc1Cl` [compound 163] displayed a Kd of more than 100 µM. Consider `CCn1ccc2c(-c3ccc(C(=O)O)[nH]3)cccc21` [compound 122], for which the Kd was more than 100 µM. In turn, `O=C(O)c1ccc(-c2ccccc2)s1` [compound 152] registered a Kd of more than 100 µM.

`CCc1c(-c2ccc(C)c3[nH]ccc23)[nH]c(C(=O)O)c1-c1cccc2[nH]ccc12` [compound 22] came in with a Kd of less than 20 µM. Molecule `CC(C)c1c(-c2cc(F)cc3[nH]ccc23)[nH]c(C(=O)O)c1-c1ccnc2[nH]c(-c3ccccc3Cl)cc12` [compound 254] showed a Kd of less than 20 µM. With `CNCc1ccc2[nH]ccc2c1-c1c(C(=O)O)[nH]c(-c2cc(F)cc3[nH]ccc23)c1C(C)C` [compound 239] the figure was less than 20 µM; with `CC(C)c1c(-c2cc(F)cc3[nH]ccc23)[nH]c(C(=O)O)c1-c1c[nH]c2ccccc12` [compound 203, 5-(6-fluoro-1H-indol-4-yl)-3-(1H-indol-3-yl)-4-isopropyl-1H-pyrrole-2-carboxylic acid], less than 20 µM; with `CC(C)c1c(-c2ccc3[nH]ccc3c2)[nH]c(C(=O)O)c1-c1c(Cl)ccc2[nH]ccc12` [compound 181], less than 20 µM. Turning to `CC(C)c1c(-c2cc(F)cc3[nH]ccc23)[nH]c(C(=O)O)c1-c1cccc2[nH]c3ccccc3c12` [compound 210], the Kd is less than 20 µM. For the molecule `CC(C)c1c(-c2cc(F)cc3[nH]ccc23)[nH]c(C(=O)O)c1-c1cccc2[nH]c(C(N)=O)cc12` [compound 190], the Kd was less than 20 µM. Turning to `CC(C)CCc1c[nH]c2cccc(-c3c(C(=O)O)[nH]c(-c4cc(F)cc5[nH]ccc45)c3C(C)C)c12` [compound 188], the Kd is less than 20 µM. Regarding `CC(C)c1c(-c2cc(F)cc3[nH]ccc23)[nH]c(C(=O)O)c1-c1cc(C(F)(F)F)cc2c1ccn2CC(=O)O` [compound 54], the Kd was less than 20 µM. For `CC(C)c1c(-c2cc(F)cc3[nH]ccc23)[nH]c(C(=O)O)c1-c1cccc2c1ccn2CCNS(C)(=O)=O` [compound 265], the Kd is less than 20 µM. For `O=C(O)c1ccc(-c2cccc(Oc3ccccc3)c2)[nH]1` [compound 139], the Kd is more than 100 µM. Turning to `Cc1c[nH]c2nccc(-c3c(C(=O)O)[nH]c(-c4cc(F)cc5[nH]ccc45)c3C(C)C)c12` [compound 208], the Kd was less than 20 µM. Molecule `Cc1cc(C(=O)O)[nH]c1-c1cccc2c1ccn2C` [compound 116] registered a Kd of more than 100 µM. `CC(C)c1c(-c2cc(F)cc3[nH]ccc23)[nH]c(C(=O)O)c1-c1cccc2[nH]c(S(N)(=O)=O)cc12` [compound 227] came in with a Kd of less than 20 µM. Then `CCOc1cc(-c2c(C(=O)O)[nH]c(-c3cc(F)cc4[nH]ccc34)c2C(C)C)c2cc[nH]c2c1` [compound 42], with less than 20 µM.

As for `CCNc1ccc2[nH]ccc2c1-c1c(C(=O)O)[nH]c(-c2cc(F)cc3[nH]ccc23)c1C(C)C` [compound 240], the Kd was less than 20 µM. Take `CC(C)c1c(-c2cc(F)cc3[nH]ccc23)[nH]c(S(N)(=O)=O)c1-c1cccc2[nH]ccc12` [compound 217]: the Kd is less than 20 µM. `COc1cccc(-c2ccc(C(=O)O)[nH]2)c1` [compound 141] came in with a Kd of more than 100 µM. Then `C#CCCCCC(=O)NCCCCCC(=O)NCCc1c[nH]c2cc(F)cc(-c3[nH]c(C(=O)O)c(-c4c(Cl)ccc5[nH]ccc45)c3C(C)C)c12` [compound 68], with less than 20 µM. The molecule `CCc1c(-c2cccc3[nH]ccc23)[nH]c(C(=O)O)c1-c1c(Cl)ccc2[nH]ccc12` [compound 16] gave a Kd of less than 20 µM.

Molecule `CCc1c[nH]c2cc(OC)cc(-c3c(C(=O)O)[nH]c(-c4cc(F)cc5[nH]ccc45)c3C(C)C)c12` [compound 186] registered a Kd of less than 20 µM. With `CC(C)c1c(-c2cc(F)cc3[nH]ccc23)[nH]c(C(=O)O)c1-c1cc(C(=O)NCC2CC2)cc2[nH]ccc12` [compound 199] the figure was less than 20 µM.

With `Cc1cc(-c2cccc3[nH]ccc23)[nH]c1C(=O)O` [compound 120], the Kd was more than 100 µM. Consider `CCc1c(-c2ccccc2O)[nH]c(C(=O)O)c1-c1ccccc1Cl` [compound 107], for which the Kd is more than 100 µM. `CC(CF)c1c(-c2cccc3[nH]ccc23)[nH]c(C(=O)O)c1-c1cccc2[nH]ccc12` (centres unmarked) [compound 32] showed a Kd of less than 20 µM. `CC(C)c1c(-c2cc(F)cc3[nH]ccc23)[nH]c(C(=O)O)c1-c1cccc2c1ccn2CCS(N)(=O)=O` [compound 266]: the Kd was less than 20 µM. Molecule `CC(C)c1c(-c2cc(F)cc3[nH]ccc23)[nH]c(C(=O)O)c1-c1cccc2[nH]c(C(=O)O)cc12` [compound 47] showed a Kd of less than 20 µM. Take `CCc1c(-c2cccc3c2ccn3C)[nH]c(C(=O)O)c1-c1ccc(OC)cc1` [compound 108]: the Kd is more than 100 µM. Molecule `CC(C)c1c(-c2cccc3[nH]ccc23)[nH]c(C(=O)O)c1-c1cccc2[nH]ccc12` [compound 33] showed a Kd of less than 20 µM. In turn, `CCc1c(-c2c(C)ccc3[nH]ccc23)[nH]c(C(=O)O)c1-c1c(Cl)ccc2[nH]ccc12` [compound 6] returned a Kd of less than 20 µM. As to `CC(C)c1c(-c2cc(F)cc3[nH]ccc23)[nH]c(C(=O)O)c1-c1c(F)ccc2[nH]ccc12` [compound 243], the Kd was less than 20 µM. For the molecule `Cn1ccc2c(-c3ccc(C(=O)O)[nH]3)cccc21` [compound 127], the Kd was more than 100 µM. As to `CCc1c(-c2cccc3[nH]ccc23)[nH]c(C(=O)O)c1-c1cccc2[nH]ccc12` [compound 20], the Kd was less than 20 µM. Then `COc1cc(-c2c(C(=O)O)[nH]c(-c3cc(F)cc4[nH]ccc34)c2C(C)C)c2cc(CO)[nH]c2c1` [compound 192], with less than 20 µM; and `CC(C)c1c(-c2cc(F)cc3[nH]ccc23)[nH]c(C(=O)O)c1-c1c(C(F)(F)F)cnc2[nH]ccc12` [compound 248], with less than 20 µM. Regarding `CC(C)c1c(-c2cc(F)cc3[nH]ccc23)[nH]c(C(=O)O)c1-c1cccc2nc(NS(C)(=O)=O)sc12` [compound 232], the Kd is less than 20 µM. Then `CC(C)c1c(-c2cc(F)cc3[nH]cc(CCNC(=O)CCCCCNC(=O)c4ccc5c(c4)C(=O)OC54c5ccc(O)cc5Oc5cc(O)ccc54)c23)[nH]c(C(=O)O)c1-c1c(Cl)ccc2[nH]ccc12` [compound 70], with less than 20 µM; and `Cc1ccc2[nH]ccc2c1-c1[nH]c(C(=O)O)c(-c2c(Cl)ccc3[nH]ccc23)c1C(C)C` [compound 7], with less than 20 µM; and `CCc1c(-c2cccc3[nH]ccc23)[nH]c(C(=O)O)c1-c1ccccc1Cl` [compound 65], with less than 20 µM. `CC(C)c1c(-c2cc(F)cc3[nH]ccc23)[nH]c(C(=O)O)c1-c1cccc2nc[nH]c12` [compound 206] showed a Kd of less than 20 µM. The molecule `CC(C)c1c(-c2cc(F)cc3[nH]ccc23)[nH]c(C(=O)O)c1-c1cccc2[nH]c(C(=O)NCc3nccs3)cc12` [compound 262] registered a Kd of less than 20 µM. `CC(C)c1c(-c2cc(F)cc3[nH]ccc23)[nH]c(C(=O)O)c1-c1c(Cl)cnc2[nH]ccc12` [compound 245] gave a Kd of less than 20 µM.

Consider `CC(C)c1c(-c2cccc3c2ccn3N)[nH]c(C(=O)O)c1-c1cccc2[nH]ccc12` [compound 214], for which the Kd was less than 20 µM. Molecule `CCn1c(C(=O)O)c(-c2cc(OC)cc3[nH]ccc23)c(C(C)C)c1-c1cc(F)cc2[nH]ccc12` [compound 71] registered a Kd of less than 20 µM. With `CC(C)c1c(-c2cc(F)cc3[nH]ccc23)[nH]c(C(=O)O)c1-c1cccc2scnc12` [compound 172], the Kd was less than 20 µM. With `CC(C)c1c(-c2cc(F)cc3[nH]ccc23)[nH]c(C(=O)O)c1-c1cccc2[nH]c3c(c12)CCC3` [compound 212] the figure was less than 20 µM; with `CCc1c(-c2cccc3[nH]ccc23)[nH]c(C(=O)O)c1-c1ccccc1-c1ccccc1` [compound 96], 50 to 100 µM; with `CC(C)c1c(-c2cc(F)cc3[nH]ccc23)[nH]c(C(=O)O)c1-c1cccc2[nH]ncc12` [compound 40], less than 20 µM.
